Laboratory results: the NIST ThermoML archive (doi:10.1021/acs.jced.8b00037)
± gives the expanded uncertainty stated by the source.

Experiment: molar heat capacity at constant volume
Conditions: Liquid, Vacuum adiabatic calorimetry

COC [dimethyl ether]
Conditions	molar heat capacity at constant volume [J/K/mol]
157.53 K, 4013 kPa	69.69 ± 0.52
159.72 K, 8322 kPa	69.6 ± 0.52
161.9 K, 12544 kPa	69.78 ± 0.52
164.07 K, 16672 kPa	69.67 ± 0.52
166.23 K, 20708 kPa	69.85 ± 0.52
168.38 K, 24704 kPa	69.65 ± 0.52
170.51 K, 28650 kPa	69.79 ± 0.52
172.64 K, 32529 kPa	70.05 ± 0.53
176.39 K, 3776 kPa	68.85 ± 0.52
178.57 K, 7593 kPa	68.76 ± 0.52
180.74 K, 11350 kPa	68.76 ± 0.52
182.9 K, 15062 kPa	68.62 ± 0.52
185.05 K, 18718 kPa	68.78 ± 0.52
187.2 K, 22325 kPa	68.84 ± 0.52
189.34 K, 25885 kPa	68.95 ± 0.52
191.46 K, 29382 kPa	69 ± 0.52
193.58 K, 32823 kPa	69.21 ± 0.52
200.6 K, 3313 kPa	68.02 ± 0.51
202.77 K, 6569 kPa	67.99 ± 0.51
204.93 K, 9792 kPa	67.7 ± 0.51
207.08 K, 12969 kPa	68.02 ± 0.51
209.23 K, 16115 kPa	68 ± 0.51
211.37 K, 19219 kPa	68.42 ± 0.52
213.5 K, 22288 kPa	68.53 ± 0.52
215.62 K, 25311 kPa	68.58 ± 0.52
217.74 K, 28297 kPa	69.12 ± 0.52
219.85 K, 31246 kPa	69 ± 0.52
223.34 K, 2896 kPa	67.94 ± 0.51
225.51 K, 5714 kPa	67.91 ± 0.51
227.67 K, 8494 kPa	68.08 ± 0.51
229.82 K, 11254 kPa	68.44 ± 0.52
231.97 K, 13976 kPa	68.41 ± 0.52
234.11 K, 16676 kPa	68.64 ± 0.52
236.24 K, 19342 kPa	68.9 ± 0.52
238.36 K, 21979 kPa	68.71 ± 0.52
240.48 K, 24585 kPa	68.77 ± 0.52
242.59 K, 27158 kPa	69.15 ± 0.52
244.69 K, 29702 kPa	69.45 ± 0.52
245.08 K, 2602 kPa	68.32 ± 0.51
246.78 K, 32213 kPa	69.76 ± 0.52
247.24 K, 5030 kPa	68.61 ± 0.52
249.4 K, 7443 kPa	68.82 ± 0.52
251.55 K, 9828 kPa	69.15 ± 0.52
253.7 K, 12195 kPa	69.1 ± 0.52
255.84 K, 14539 kPa	69.14 ± 0.52
257.97 K, 16865 kPa	69.11 ± 0.52
260.09 K, 19157 kPa	69.43 ± 0.52
261.13 K, 2479 kPa	69.34 ± 0.52
262.21 K, 21436 kPa	69.63 ± 0.52
263.3 K, 4661 kPa	69.49 ± 0.52
264.32 K, 23690 kPa	69.84 ± 0.52
265.47 K, 6829 kPa	69.28 ± 0.52
266.43 K, 25920 kPa	69.92 ± 0.53
267.63 K, 8973 kPa	69.82 ± 0.52
268.52 K, 28128 kPa	69.96 ± 0.53
269.79 K, 11103 kPa	69.61 ± 0.52
270.62 K, 30316 kPa	69.95 ± 0.53
271.93 K, 13210 kPa	69.63 ± 0.52
272.69 K, 32476 kPa	70.7 ± 0.53
274.07 K, 15304 kPa	70.14 ± 0.53
276.21 K, 17379 kPa	70.25 ± 0.53
278.33 K, 19435 kPa	70.27 ± 0.53
279.17 K, 2674 kPa	69.72 ± 0.52
280.45 K, 21472 kPa	70.38 ± 0.53
281.36 K, 4596 kPa	69.98 ± 0.53
282.56 K, 23487 kPa	70.94 ± 0.53
283.54 K, 6506 kPa	69.97 ± 0.53
284.67 K, 25491 kPa	70.96 ± 0.53
285.71 K, 8399 kPa	70.42 ± 0.53
286.77 K, 27476 kPa	70.72 ± 0.53
287.87 K, 10279 kPa	70.77 ± 0.53
288.86 K, 29439 kPa	71.64 ± 0.54
290.03 K, 12145 kPa	71.02 ± 0.53
290.95 K, 31396 kPa	71.89 ± 0.54
292.18 K, 14000 kPa	71.24 ± 0.53
293.04 K, 33333 kPa	71.85 ± 0.54
294.33 K, 15843 kPa	71.24 ± 0.53
296.47 K, 17674 kPa	70.96 ± 0.53
298.61 K, 19489 kPa	71.48 ± 0.54
300.73 K, 2646 kPa	71.27 ± 0.53
300.75 K, 21296 kPa	71.95 ± 0.54
302.88 K, 23091 kPa	71.44 ± 0.54
302.96 K, 4292 kPa	71.08 ± 0.53
305.01 K, 24872 kPa	71.85 ± 0.54
305.18 K, 5930 kPa	71.96 ± 0.54
307.14 K, 26644 kPa	72.77 ± 0.54
307.41 K, 7569 kPa	72.11 ± 0.54
309.27 K, 28409 kPa	73.16 ± 0.55
309.62 K, 9196 kPa	71.88 ± 0.54
311.39 K, 30163 kPa	72.97 ± 0.55
311.84 K, 10814 kPa	72.56 ± 0.54
313.52 K, 31911 kPa	73.2 ± 0.55
314.06 K, 12436 kPa	72.39 ± 0.54
315.65 K, 33651 kPa	73 ± 0.55
316.28 K, 14048 kPa	72.58 ± 0.54
318.5 K, 15656 kPa	72.87 ± 0.55
320.54 K, 2597 kPa	72.71 ± 0.54
320.74 K, 17265 kPa	73.03 ± 0.55
322.97 K, 18872 kPa	73.22 ± 0.55
323.02 K, 4128 kPa	72.98 ± 0.55
325.22 K, 20482 kPa	73.26 ± 0.55
325.5 K, 5662 kPa	73.54 ± 0.55
327.49 K, 22098 kPa	73.84 ± 0.55
328.01 K, 7206 kPa	73.45 ± 0.55
329.78 K, 23723 kPa	73.46 ± 0.55
330.53 K, 8756 kPa	73.25 ± 0.55
332.09 K, 25355 kPa	73.79 ± 0.55
333.07 K, 10311 kPa	73.52 ± 0.55
334.44 K, 27002 kPa	74.11 ± 0.55
335.63 K, 11877 kPa	73.69 ± 0.55
336.81 K, 28665 kPa	74.55 ± 0.56
338.21 K, 13448 kPa	74.18 ± 0.55
339.21 K, 30343 kPa	75.43 ± 0.56
340.82 K, 15034 kPa	74.59 ± 0.56
341.66 K, 32044 kPa	75.07 ± 0.56
343.45 K, 16629 kPa	74.42 ± 0.56
344.14 K, 33761 kPa	74.99 ± 0.56
